Measurements reported in article PMC6770581, “New Thalidomide-Resembling Dicarboximides Target ABC50 Protein and Show Antileukemic and Immunomodulatory Activities” (Biomolecules, 2019).

Columns and labels:
caspase 8 and caspase 9 = assay: Western blot of caspase 8 and caspase 9 cleavage in K562 cells; assay type: cell-based, human; details: K562, 5 µM
Description: (§1) 0.15 × 10^6 cells/ml were seeded on a 6-well plate (Nunclon, Thermo Fisher Scientific, Waltham, MA, USA). Following 24 hour preincubation the cells were treated with either the compound or 1% DMSO (control) for 24 or 48 hours. Cells were lysed using RIPA Buffer (Sigma) supplemented with Complete Protease Inhibitor Coctail (Roche, Basel, Switzerland) and PhosSTOP (Roche). Samples containing 20 µg protein were resuspended in 4× Laemmli’s Buffer (Biorad, Hercules, CA, USA), separated on 10% acrylamide gel (TGX Stain-Free Gel Kit, Biorad) and blotted onto nitrocellulose membrane (Panreac Applichem ITW, Darmstadt, Germany). Blots were blocked in 5% non-fat dry milk in TBST (1% (v/v) Tween-20, 140 mM NaCl, 25 mM Trizma, pH = 7.4 adjusted with HCl) for 1 h and incubated overnight with the antibodies against caspase-9 (9502), caspase-8 (9746), caspase-3 (9662), caspase-3 cleaved (9661) and β-actin (3700), all from Cell Signaling Technology, and antibody against poly(ADP-ribose)polymerase (PARP, 551025) from BD Pharmingen. Membranes were incubated with appropriate species-specific secondary antibodies conjugated with HRP (Cell Signaling Technology, Danvers, MA, USA). Blots were developed using ECL substrate (Biorad, Hercules, CA, USA). The experiment was performed in at least three independent biological replicates.

caspase 3 and PARP = assay: Western blot of caspase 3 and PARP cleavage in K562 cells; assay type: cell-based, human; details: 24 h
Description: as §1

CCC12C(=O)C(CC)(C(c3ccccc3)=C1c1ccccc1)C1C(=O)N(CC(O)CNC(C)C)C(=O)C12 (stereo not drawn) [Compound 5]
cleavage of caspase 8 and caspase 9 (Western blot) (caspase 8 and caspase 9; 24 h): cleaved form of caspase 9 | cleavage of caspase 8 and caspase 9 (Western blot) (caspase 8 and caspase 9; 48 h): Cleaved (i.e., activated) forms of caspases 8/9 were detected | caspase 3 and PARP cleavage (Western blot) (caspase 3 and PARP): presence of cleavage fragments of PARP (85 kDa) and caspase 3 (17 kDa)
